Laboratory results from patent US8846933B2, “N-link hydroxamic acid derivatives useful as antibacterial agents” (Pfizer Inc., priority 2009, dated 2014).

What was measured:
[1] = tested on: Escherichia coli EC-1: VOGEL, mouse virulent; test: MIC determination (CLSI), strain EC-1; assay type: cell-based; conditions: strain EC-1, unit assumed
Summary of the method: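 The mouse-virulent VOGEL isolate of E. coli, EC-1, served as test organism. Minimum inhibitory concentration was measured by CLSI dilution methodology (M7-A7; M100-S18 standards).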

[2] = tested on: Pseudomonas aeruginosa UI-18: Wild-type (PA-7); test: MIC determination (CLSI), strain PA-7; assay type: cell-based; conditions: strain PA-7, unit assumed
Summary of the method: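 Strain tested was P. aeruginosa UI-18, a wild-type isolate labelled PA-7. Minimum inhibitory concentrations followed CLSI dilution methodology for aerobically growing bacteria (M7-A7, M100-S18).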

[3] = generated in the same manner as in Table 4

## C[C@@](CCn1ccc(-c2ccc3cc(CO)ccc3c2)cc1=O)(C(=O)NO)S(C)(=O)=O [Example 315, (2R)-N-hydroxy-4-{4-[6-(hydroxymethyl)-2-naphthyl]-2-oxopyridin-1(2H)-yl}-2-methyl-2-(methylsulfonyl)butanamide]
[1]
  EC-1 (MIC): 0.5 µg/mL
[2]
  PA-7 (MIC): 1 µg/mL

## CC(CCn1ccc(-c2ccc(OCCc3ccccn3)cc2)cc1=O)(C(=O)NO)S(C)(=O)=O (stereo not shown) [Example 272, N-hydroxy-2-methyl-2-(methylsulfonyl)-4-{2-oxo-4-[4-(2-pyridin-2-ylethoxy)phenyl]pyridin-1(2H)-yl}butanamide]
[1]
  EC-1 (MIC): 0.5 µg/mL
[2]
  PA-7 (MIC): 2 µg/mL

## CC(CCn1ccc(-c2ccc(C(F)(F)F)cc2C(F)(F)F)cc1=O)(C(=O)NO)S(C)(=O)=O (stereo not shown) [Example 174, 4-{4-[2,4-bis(trifluoromethyl)phenyl]-2-oxopyridin-1(2H)-yl}-N-hydroxy-2-methyl-2-(methylsulfonyl)butanamide]
[1]; [3]
  EC-1 (MIC): 64 µg/mL
[2]; [3]
  PA-7 (MIC): > 64 µg/mL

## CC(CCn1ccc(-c2ccccc2F)cc1=O)(C(=O)NO)S(C)(=O)=O (stereo not shown) [Example 159, 4-[4-(2-fluorophenyl)-2-oxopyridin-1(2H)-yl]-N-hydroxy-2-methyl-2-(methylsulfonyl)butanamide]
[1]; [3]
  EC-1 (MIC): 2 µg/mL
[2]; [3]
  PA-7 (MIC): 2 µg/mL

## CC(O)Cc1cccc(-c2ccn(CCC(C)(C(=O)NO)S(C)(=O)=O)c(=O)c2)c1 (stereo not shown) [Example 231, N-hydroxy-4-{4-[3-(2-hydroxypropyl)phenyl]-2-oxopyridin-1(2H)-yl}-2-methyl-2-(methylsulfonyl)butanamide]
[1]
  EC-1 (MIC): > 64 µg/mL
[2]
  PA-7 (MIC): > 64 µg/mL

## CC(CCn1ccc(-c2cnn(Cc3ccccc3)c2)cc1=O)(C(=O)NO)S(C)(=O)=O (stereo not shown) [Example 165, 4-[4-(1-benzyl-1H-pyrazol-4-yl)-2-oxopyridin-1(2H)-yl]-N-hydroxy-2-methyl-2-(methylsulfonyl)butanamide]
[1]; [3]
  EC-1 (MIC): > 64 µg/mL
[2]; [3]
  PA-7 (MIC): > 64 µg/mL

## C[C@@](CCn1ccc(-c2ccc(-c3ccno3)cc2)cc1=O)(C(=O)NO)S(C)(=O)=O [Example 411, (2R)-N-hydroxy-4-[4-(4-isoxazol-5-ylphenyl)-2-oxopyridin-1(2H)-yl]-2-methyl-2-(methylsulfonyl)butanamide]
[1]
  EC-1 (MIC): 0.5 µg/mL
[2]
  PA-7 (MIC): 0.5 µg/mL

## CC(O)Cc1ccc(-c2ccn(CCC(C)(C(=O)NO)S(C)(=O)=O)c(=O)c2)cc1 (stereo not shown) [Example 224, N-hydroxy-4-{4-[4-(2-hydroxypropyl)phenyl]-2-oxopyridin-1(2H)-yl}-2-methyl-2-(methylsulfonyl)butanamide]
[1]
  EC-1 (MIC): 32 µg/mL
[2]
  PA-7 (MIC): 8 µg/mL

## CC(C#N)Sc1ccc(-c2ccn(CC[C@](C)(C(=O)NO)S(C)(=O)=O)c(=O)c2)cc1 (stereo partly shown) [Example 357]
[1]
  EC-1 (MIC): 1 µg/mL
[2]
  PA-7 (MIC): 1 µg/mL

## COc1c(F)cc(-c2ccn(CC[C@](C)(C(=O)NO)S(C)(=O)=O)c(=O)c2)cc1F [Example 459]
[1]
  EC-1 (MIC): 2 µg/mL
[2]
  PA-7 (MIC): 2 µg/mL

## COc1ccc(F)cc1-c1ccn(CCC(C)(C(=O)NO)S(C)(=O)=O)c(=O)c1 (stereo not shown) [Example 173, 4-[4-(5-fluoro-2-methoxyphenyl)-2-oxopyridin-1(2H)-yl]-N-hydroxy-2-methyl-2-(methylsulfonyl)butanamide]
[1]; [3]
  EC-1 (MIC): 64 µg/mL
[2]; [3]
  PA-7 (MIC): 64 µg/mL

## CCS(=O)(=O)c1ccc(-c2ccn(CCC(C)(C(=O)NO)S(C)(=O)=O)c(=O)c2)cc1 (stereo not shown) [Example 136, 4-{4-[4-(ethylsulfonyl)phenyl]-2-oxopyridin-1(2H)-yl}-N-hydroxy-2-methyl-2-(methylsulfonyl)butanamide]
[1]; [3]
  EC-1 (MIC): > 64 µg/mL
[2]; [3]
  PA-7 (MIC): 64 µg/mL

## CCCCc1ccc(-c2ccn(CC[C@](C)(C(=O)NO)S(C)(=O)=O)c(=O)c2)cc1 [Example 464, (2R)-4-[4-(4-butylphenyl)-2-oxopyridin-1(2H)-yl]-N-hydroxy-2-methyl-2-(methylsulfonyl)butanamide]
[1]
  EC-1 (MIC): 0.03 µg/mL
[2]
  PA-7 (MIC): 1 µg/mL

## CC(CCn1ccc(-c2ccc(CO)cc2)cc1=O)(C(=O)NO)S(C)(=O)=O (stereo not shown) [Example 72, N-hydroxy-4-{4-[4-(hydroxymethyl)phenyl]-2-oxopyridin-1(2H)-yl}-2-methyl-2-(methylsulfonyl)butanamide]
[1]; [3]
  EC-1 (MIC): > 64 µg/mL
[2]; [3]
  PA-7 (MIC): 16 µg/mL

## CC(CCn1ccc(-c2ccc(OC(F)(F)F)cc2)cc1=O)(C(=O)NO)S(C)(=O)=O (stereo not shown) [Example 145, N-hydroxy-2-methyl-2-(methylsulfonyl)-4-{2-oxo-4-[4-(trifluoromethoxy)phenyl]pyridin-1(2H)-yl}butanamide]
[1]; [3]
  EC-1 (MIC): 1 µg/mL
[2]; [3]
  PA-7 (MIC): 2 µg/mL

## CC(CCn1ccc(-c2cc(Cl)ccc2F)cc1=O)(C(=O)NO)S(C)(=O)=O (stereo not shown) [Example 150, 4-[4-(5-chloro-2-fluorophenyl)-2-oxopyridin-1(2H)-yl]-N-hydroxy-2-methyl-2-(methylsulfonyl)butanamide]
[1]; [3]
  EC-1 (MIC): 4 µg/mL
[2]; [3]
  PA-7 (MIC): 4 µg/mL

## C[C@@](CCn1ccc(-c2ccc(Oc3noc4ccccc34)cc2)cc1=O)(C(=O)NO)S(C)(=O)=O [Example 450, (2R)-4-{4-[4-(1,2-benzisoxazol-3-yloxy)phenyl]-2-oxopyridin-1(2H)-yl}-N-hydroxy-2-methyl-2-(methylsulfonyl)butanamide]
[1]
  EC-1 (MIC): 0.06 µg/mL
[2]
  PA-7 (MIC): 2 µg/mL

## CC(CCn1ccc(-c2ccc(OCCCCO)cc2Cl)cc1=O)(C(=O)NO)S(C)(=O)=O (stereo not shown) [Example 239, 4-{4-[2-chloro-4-(4-hydroxybutoxy)phenyl]-2-oxopyridin-1(2H)-yl}-N-hydroxy-2-methyl-2-(methylsulfonyl)butanamide]
[1]
  EC-1 (MIC): 1 µg/mL
[2]
  PA-7 (MIC): 4 µg/mL

## COc1ccc(-c2ccn(CCC(C)(C(=O)NO)S(C)(=O)=O)c(=O)c2)cc1OC (stereo not shown) [Example 138, 4-[4-(3,4-dimethoxyphenyl)-2-oxopyridin-1(2H)-yl]-N-hydroxy-2-methyl-2-(methylsulfonyl)butanamide]
[1]; [3]
  EC-1 (MIC): 64 µg/mL
[2]; [3]
  PA-7 (MIC): 64 µg/mL

## CC(CCn1ccc(-c2cc(F)ccc2OC(F)(F)F)cc1=O)(C(=O)NO)S(C)(=O)=O (stereo not shown) [Example 137, 4-{4-[5-fluoro-2-(trifluoromethoxy)phenyl]-2-oxopyridin-1(2H)-yl}-N-hydroxy-2-methyl-2-(methylsulfonyl)butanamide]
[1]; [3]
  EC-1 (MIC): > 64 µg/mL
[2]; [3]
  PA-7 (MIC): > 64 µg/mL

## CC(CCn1ccc(-c2cccc(O)c2F)cc1=O)(C(=O)NO)S(C)(=O)=O (stereo not shown) [Example 96]
[1]; [3]
  EC-1 (MIC): 64 µg/mL
[2]; [3]
  PA-7 (MIC): > 64 µg/mL

## Cc1ccnc(-c2ccc(-c3ccn(CC[C@](C)(C(=O)NO)S(C)(=O)=O)c(=O)c3)cc2)n1 [Example 375, (2R)-N-hydroxy-2-methyl-4-{4-[4-(4-methylpyrimidin-2-yl)phenyl]-2-oxopyridin-1(2H)-yl}-2-(methylsulfonyl)butanamide]
[1]
  EC-1 (MIC): 0.5 µg/mL
[2]
  PA-7 (MIC): 4 µg/mL

## C[C@@](CCn1ccc(-c2ccc(Oc3ccc(Cl)cn3)cc2)cc1=O)(C(=O)NO)S(C)(=O)=O [Example 430, (2R)-4-[4-{4-[(5-chloropyridin-2-yl)oxy]phenyl}-2-oxopyridin-1(2H)-yl]-N-hydroxy-2-methyl-2-(methylsulfonyl)butanamide]
[1]
  EC-1 (MIC): 0.125 µg/mL
[2]
  PA-7 (MIC): 2 µg/mL

## CC(CCn1ccc(-c2ccc3ccc(O)cc3c2)cc1=O)(C(=O)NO)S(C)(=O)=O (stereo not shown) [Example 299, N-hydroxy-4-[4-(7-hydroxy-2-naphthyl)-2-oxopyridin-1(2H)-yl]-2-methyl-2-(methylsulfonyl)butanamide]
[1]
  EC-1 (MIC): 1 µg/mL
[2]
  PA-7 (MIC): 4 µg/mL

## CC(CCn1ccc(-c2ccsc2)cc1=O)(C(=O)NO)S(C)(=O)=O (stereo not shown) [Example 107, N-hydroxy-2-methyl-2-(methylsulfonyl)-4-[2-oxo-4-(3-thienyl)pyridin-1(2H)-yl]butanamide]
[1]; [3]
  EC-1 (MIC): 32 µg/mL
[2]; [3]
  PA-7 (MIC): 16 µg/mL

## CC(C)Oc1ncccc1-c1ccn(CCC(C)(C(=O)NO)S(C)(=O)=O)c(=O)c1 (stereo not shown) [Example 168, N-hydroxy-4-(2-isopropoxy-2′-oxo-3,4′-bipyridin-1′(2′H)-yl)-2-methyl-2-(methylsulfonyl)butanamide]
[1]; [3]
  EC-1 (MIC): > 64 µg/mL
[2]; [3]
  PA-7 (MIC): > 64 µg/mL

## COc1cc(-c2ccn(CCC(C)(C(=O)NO)S(C)(=O)=O)c(=O)c2)cc(OC)c1OC (stereo not shown) [Example 212, N-hydroxy-2-methyl-2-(methylsulfonyl)-4-[2-oxo-4-(3,4,5-trimethoxyphenyl)pyridin-1(2H)-yl]butanamide]
[1]
  EC-1 (MIC): > 64 µg/mL
[2]
  PA-7 (MIC): > 64 µg/mL

## Cc1nn(-c2ccc(-c3ccn(CC[C@](C)(C(=O)NO)S(C)(=O)=O)c(=O)c3)cc2)nc1C [Example 373, (2R)-4-{4-[4-(4,5-dimethyl-2H-1,2,3-triazol-2-yl)phenyl]-2-oxopyridin-1(2H)-yl}-N-hydroxy-2-methyl-2-(methylsulfonyl)butanamide]
[1]
  EC-1 (MIC): 0.125 µg/mL
[2]
  PA-7 (MIC): 1 µg/mL

## COc1ccc(-c2ccn(CC[C@](C)(C(=O)NO)S(C)(=O)=O)c(=O)c2)c(Cl)c1Cl [Example 452, (2R)-4-[4-(2,3-dichloro-4-methoxyphenyl)-2-oxopyridin-1(2H)-yl]-N-hydroxy-2-methyl-2-(methylsulfonyl)butanamide]
[1]
  EC-1 (MIC): 4 µg/mL
[2]
  PA-7 (MIC): 2 µg/mL

## CC(CCn1ccc(-c2cccc(F)c2F)cc1=O)(C(=O)NO)S(C)(=O)=O (stereo not shown) [Example 147, 4-[4-(2,3-difluorophenyl)-2-oxopyridin-1(2H)-yl]-N-hydroxy-2-methyl-2-(methylsulfonyl)butanamide]
[1]; [3]
  EC-1 (MIC): 2 µg/mL
[2]; [3]
  PA-7 (MIC): 1 µg/mL

## C[C@@](CCn1ccc(-c2ccc(-c3ncno3)cc2)cc1=O)(C(=O)NO)S(C)(=O)=O [Example 417, (2R)-N-hydroxy-2-methyl-2-(methylsulfonyl)-4-{4-[4-(1,2,4-oxadiazol-5-yl)phenyl]-2-oxopyridin-1(2H)-yl}butanamide]
[1]
  EC-1 (MIC): 8 µg/mL
[2]
  PA-7 (MIC): 64 µg/mL

## C[C@@](CCn1ccc(-c2ccc(OCCC(O)CO)cc2)cc1=O)(C(=O)NO)S(C)(=O)=O (stereo partly drawn) [Example 366, (2R)-4-{4-[4-(3,4-dihydroxybutoxy)phenyl]-2-oxopyridin-1(2H)-yl}-N-hydroxy-2-methyl-2-(methylsulfonyl)butanamide]
[1]
  EC-1 (MIC): 16 µg/mL
[2]
  PA-7 (MIC): 16 µg/mL
